Test results: patent US20220265582A1, “EFFECTS OF MESCALINE AND OF MESCALINE ANALOGS (SCALINES) TO ASSIST PSYCHOTHERAPY” (Universitätsspital Basel, priority 2021, published 2022)
Like-named read-outs stand apart in the source and are kept apart here.

Key:
healthy subjects [1] = assay: Adverse effects, list of complaints (LC), Clinical Study I; type: in vivo, human; details: for mean total LC score: six human volunteers, oral mescaline 300 mg, psilocybin 20 mg, LSD 100 μg, LC 12 hours after administration
Experimental: Adverse effects (list of complaints): The list of complaints (LC) consists of 66 items offering a global score measuring physical and general discomfort (119). The LC list was administered 12 hours after administration of the drug with reference to complaints throughout the entire session.

healthy subjects [2] = assay: Visual Analog Scales (VAS) of acute subjective effects, Clinical Study I; details: for duration of subjective effects (VAS any drug effect): mescaline 300 mg, psilocybin 20 mg, LSD 100 μg oral
healthy subjects [3] = assay: Autonomic measures (blood pressure, heart rate, body temperature), Clinical Study I; type: in vivo, human
Experimental: Autonomic measures: Blood pressure, heart rate, and body temperature were recorded at baseline and repeatedly throughout the session. Blood pressure (systolic and diastolic) and heart rate were measured with an automatic oscillometric device. Body temperature was measured with an ear thermometer.

5-HT transporter (SERT) = 5-HT transporter (SERT) (Homo sapiens, UniProt P31645); details: cited from earlier work
5-HT transporter (SERT), sequence (P31645 whole entry): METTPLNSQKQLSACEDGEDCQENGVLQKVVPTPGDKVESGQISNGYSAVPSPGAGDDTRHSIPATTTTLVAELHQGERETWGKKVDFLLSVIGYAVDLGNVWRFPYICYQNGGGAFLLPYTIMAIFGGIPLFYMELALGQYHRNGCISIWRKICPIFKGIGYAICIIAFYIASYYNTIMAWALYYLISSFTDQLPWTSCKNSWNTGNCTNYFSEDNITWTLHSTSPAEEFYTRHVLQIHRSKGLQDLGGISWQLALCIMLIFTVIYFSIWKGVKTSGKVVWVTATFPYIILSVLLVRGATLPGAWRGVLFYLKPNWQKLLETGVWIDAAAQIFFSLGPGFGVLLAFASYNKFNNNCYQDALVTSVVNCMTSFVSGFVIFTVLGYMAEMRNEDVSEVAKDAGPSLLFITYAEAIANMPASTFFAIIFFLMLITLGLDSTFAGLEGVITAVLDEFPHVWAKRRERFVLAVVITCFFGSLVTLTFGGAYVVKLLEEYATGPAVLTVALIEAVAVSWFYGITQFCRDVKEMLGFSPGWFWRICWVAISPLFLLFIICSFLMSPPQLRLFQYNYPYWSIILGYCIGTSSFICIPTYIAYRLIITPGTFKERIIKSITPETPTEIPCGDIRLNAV

humans = details: cited from earlier work
rodent = rodent tests (49); cited from earlier work
D2 receptors = D2 receptors (Homo sapiens, UniProt P14416); details: FIG. 3; cited from earlier work
D2 receptors, sequence (P14416 whole entry): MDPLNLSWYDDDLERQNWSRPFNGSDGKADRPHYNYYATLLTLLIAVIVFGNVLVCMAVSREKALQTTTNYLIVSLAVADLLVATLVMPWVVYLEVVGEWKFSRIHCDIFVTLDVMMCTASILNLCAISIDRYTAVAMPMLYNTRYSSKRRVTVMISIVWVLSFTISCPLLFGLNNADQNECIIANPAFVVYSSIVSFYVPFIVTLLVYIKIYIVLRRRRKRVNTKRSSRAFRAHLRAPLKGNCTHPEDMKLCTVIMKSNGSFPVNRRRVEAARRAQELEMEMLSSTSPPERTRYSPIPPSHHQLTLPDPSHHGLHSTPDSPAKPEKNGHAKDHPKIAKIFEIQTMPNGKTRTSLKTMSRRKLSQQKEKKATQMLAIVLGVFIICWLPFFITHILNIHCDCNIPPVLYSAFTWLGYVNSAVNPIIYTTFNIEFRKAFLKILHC

healthy subjects [4] = details: mescaline sulfate 500 mg, 12 subjects, MDE, 14 subjects, cited from earlier work
healthy subjects [5] = assay: 5-Dimensional Altered States of Consciousness (5D-ASC) scale, Clinical Study I; type: in vivo, human; details: 6 subjects
Experimental: 5-Dimensional Altered States of Consciousness (5D-ASC): The 5-dimensional Altered States of Consciousness (5D-ASC) Scale is a visual analog scale consisting of 94 items (117, 118). The instrument contains five main scales (FIG. 6A) and 11 newer subscales (FIG. 6B) assessing mood, anxiety, derealization, depersonalization, changes in perception, auditory alterations, and reduced vigilance. The scale is well-validated (118). The 5D-ASC scale was administered once at the end of the session and subjects were instructed to retrospectively rate peak alterations that have been experienced during the study session. Each item of the scale is scored on a 0-100 mm VAS. The attribution of the individual items to the subscales of the 5D-ASC was analyzed according to (117, 118) and as shown in FIGS. 6A-6B. The scale was be administered once at the end of each test session.

healthy male subjects = details: cited from earlier work; for psychoactive or cardiostimulant properties of metabolites administered to humans: in vivo
5-HT2A receptor = 5-HT2A receptor (Homo sapiens, UniProt P28223); details: FIG. 2 (62); cited from earlier work
5-HT2A receptor, sequence (P28223 whole entry): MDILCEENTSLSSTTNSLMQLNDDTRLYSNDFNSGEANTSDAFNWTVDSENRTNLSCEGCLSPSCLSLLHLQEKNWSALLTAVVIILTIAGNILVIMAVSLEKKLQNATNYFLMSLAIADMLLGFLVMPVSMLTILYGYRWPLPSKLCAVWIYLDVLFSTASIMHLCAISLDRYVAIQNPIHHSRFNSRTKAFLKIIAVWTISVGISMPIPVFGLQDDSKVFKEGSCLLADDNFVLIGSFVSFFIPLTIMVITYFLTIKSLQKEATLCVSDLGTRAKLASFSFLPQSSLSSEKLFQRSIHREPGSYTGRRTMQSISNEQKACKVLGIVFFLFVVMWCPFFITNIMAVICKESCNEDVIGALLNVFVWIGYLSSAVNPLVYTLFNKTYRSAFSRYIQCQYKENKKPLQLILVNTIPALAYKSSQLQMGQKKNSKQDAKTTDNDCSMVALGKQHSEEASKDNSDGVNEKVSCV

[6] = LSD vs. MDMA (45); cited from earlier work
healthy subjects [7] = details: 100 μg dose; cited from earlier work
[8] = six healthy volunteers, doses used
[9] = 500 mg mescaline hydrochloride orally

SMILES: CN(C)CCc1c[nH]c2cccc(OP(=O)(O)O)c12 [psilocybin, reference compound]
- mean total LC score (healthy subjects [1]): 6.8
- nausea (VAS) (healthy subjects [2]; doses used): highest
- increase in blood pressure and body temperature compared with the other active substances (healthy subjects [3]; 6 subjects): more pronounced and shorter-lasting increase

SMILES: COc1cc(CCN)cc(OC)c1OC [mescaline, 3,4,5-trimethoxyphenethylamine]
- interaction with the SERT (5-HT transporter (SERT)): do not interact with the SERT
- overall tolerability of acute administration (healthy subjects [1]; doses used): overall similar to that of LSD or psilocybin
- mean total LC score (healthy subjects [1]): 8.8
- dose to induce a full psychedelic experience (humans; (51, 86)): about 300 mg
- potency relative to LSD (times less potent) (humans; (86)): 1000-3000 times
- potency relative to psilocybin (times less potent) (humans; (86)): around 30 times
- subjective effect duration (humans; moderate dose (86)): 10 to 12 h
- area under the effect-time curve, visual and auditory perception (VAS) (healthy subjects [2]; doses used): similar
- bad drug effect (VAS) peaks (healthy subjects [2]; doses used): peaks lower for LSD and mescaline compared with psilocybin
- changed time perception (VAS) (healthy subjects [2]; doses used): trends toward lower changes
- ego-dissolution (VAS) (healthy subjects [2]; doses used): lower ratings
- nausea (VAS) (healthy subjects [2]; doses used): lowest nausea ratings
- openness (VAS) (healthy subjects [2]; doses used): smallest peak effect but a longer lasting effect compared with psilocybin
- synesthesia, "sounds influenced what I saw" (VAS) (healthy subjects [2]; doses used): lower ratings
- visual and auditory perception change (VAS), ratings/peak (healthy subjects [2]; doses used): lower peak effects than both psilocybin and LSD
- talkative (VAS) (healthy subjects [2]; first hours): longest effect
- area under the effect over time curve (VAS any/good drug effect) (healthy subjects [2]; [8]): similar
- peak effect (VAS any/good drug effect) (healthy subjects [2]; [8]): lower than those of psilocybin and LSD
- time to peak of subjective effects (VAS any/good drug effect) (healthy subjects [2]; [8]): took longer to peak compared to those of psilocybin and LSD
- duration of subjective effects (VAS any drug effect) (healthy subjects [2]; six healthy volunteers): lasted similarly long
- abuse-related rewarding effects (rodent): no abuse-related rewarding effects
- affinity for D2 receptors (D2 receptors): no affinity
- average APZ score AIA (anxious ego-dissolution) (healthy subjects [4]): 7.1
- average APZ score VUS (visionary restructuralization) (healthy subjects [4]): 7.4
- average APZ score OSE (oceanic boundlessness) (healthy subjects [4]; indirect comparison): 6.2
- increases in blood pressure, heart rate and body temperature after mescaline (healthy subjects [3]; 6 subjects, mescaline 300 mg): tended to be attenuated compared with both psilocybin and LSD
- thermogenic effects (healthy subjects [3]; Example 1): reduced thermogenic effects of mescaline compared to psilocybin
- effects on heart rate (healthy subjects [3]; doses used, not statistically confirmed): tended to be lower than those of psilocybin
- total alterations of consciousness (total 3D-OAV score) relative to LSD (100 μg) or psilocybin (20 mg) (healthy subjects [5]; mescaline 300 mg oral, peak responses rated 12 hours after administration): approximately 50%
- duration of subjective effects (healthy male subjects; [9]): 12 to 14 h
- onset of subjective effects (healthy male subjects; [9]): ≤ 30 min
- share excreted in urine as this species after mescaline (healthy male subjects; [9]): 55-60%
- time of peak subjective effects (healthy male subjects; [9]): 4 h
- onset of subjective effects (healthy male subjects; 500 mg mescaline hydrochloride orally, listed as mescaline hydrochloride): approximately 30 min
- delay of the peak subjective response compared with the plasma peak (healthy male subjects; 500 mg orally): about 2 hours
- radioactivity administered excreted within 24 hours (healthy male subjects; 500 mg orally): 87%
- radioactivity administered excreted within 48 h (healthy male subjects; 500 mg orally): 92%
- half-life (healthy male subjects; mescaline hydrochloride 500 mg orally, radioactivity ingested as mescaline): approximately six

SMILES: COc1cc(CCNC(C)=O)cc(O)c1OC [N-acetyl-(3,4,dimethoxy-5-hydroxyphenylethalymine]
- share excreted in urine as this species after mescaline (healthy male subjects; [9]): 5%

SMILES: CCN(CC)C(=O)[C@@H]1C=C2c3cccc4[nH]cc(c34)C[C@H]2N(C)C1 [LSD, lysergic acid diethylamide, reference compound]
- binding potency at the 5-HT2A receptor (rank) (5-HT2A receptor): binds most potently
- mean total LC score (healthy subjects [1]): 5.4
- AED score [6]: 26
- OB score [6]: 43
- VR score [6]: 50
- area under the effect-time curve, visual and auditory perception (VAS) (healthy subjects [2]; doses used): greater
- bad drug effect (VAS) peaks (healthy subjects [2]; doses used): peaks lower for LSD and mescaline compared with psilocybin
- ego-dissolution (VAS) (healthy subjects [2]; doses used): mostly increased
- stimulated (VAS) (healthy subjects [2]; doses used): greater stimulation than mescaline
- synesthesia, "sounds influenced what I saw" (VAS) (healthy subjects [2]; doses used): highest ratings
- visual and auditory perception change (VAS), ratings/peak (healthy subjects [2]; doses used): highest ratings
- area under the effect over time curve (VAS any/good drug effect) (healthy subjects [2]; [8]): greater
- duration of subjective effects (VAS any drug effect) (healthy subjects [2]; six healthy volunteers): lasted similarly long
- duration of effects (healthy subjects [7]): 8 h
- time of peak responses (healthy subjects [7]): 3 h
- overall peak effects (total 3D-OAV scores) (healthy subjects [5]; LSD 100 μg, psilocybin 20 mg): equally strong overall peak effects

SMILES: COc1cc(CCNC(C)=O)cc(OC)c1OC [NAM, N-acetyl-mescaline]
- share excreted in urine as this species after mescaline (healthy male subjects; [9]): 0.1%
- psychoactive or cardiostimulant properties of metabolites administered to humans (healthy male subjects): not to have psychoactive or cardiostimulant properties

SMILES: COc1cc(CC(=O)O)cc(OC)c1OC [TMPA, 3,4,5-trimethoxyphenylacetic acid]
- share excreted in urine as this species after mescaline (healthy male subjects; [9]): 27-30%
- psychoactive or cardiostimulant properties of metabolites administered to humans (healthy male subjects): not to have psychoactive or cardiostimulant properties

SMILES: CN(C)CCc1c[nH]c2cccc(O)c12 [Psilocin, reference compound]
- interaction with the SERT (5-HT transporter (SERT)): inhibits the 5-HT transporter (SERT)

SMILES: CNC(C)Cc1ccc2c(c1)OCO2 (stereo not drawn) [MDMA, 3,4-methylendioxymethamphetamine]
- AED score [6]: 1.3
- OB score [6]: 9.3
- VR score [6]: 4.1
